# Experiments:
# [1] = target: T1, KOR (Homo sapiens, UniProt P41145); assay: Opioid receptor binding assay, KOR ([3H]Diprenorphine); conditions: MaxDose 10000 nM
# T1 construct: expressed in transfected cells
# Experimental: (§1) Receptor binding assays were performed to assess the ability of compounds to inhibit binding to radiolabeled ligand.
# (§2) The stable cell lines were established and prepared cell membrane obtained using these cell lines.
# (§3) 3) Assay Procedure 1) Transfer 1 μl of specified concentration compound to assay plate according to the plate map for nonspecific binding. Transfer 1 μl of DMSO to assay plate according to plate map for total binding. 2) Follow the plate map. Dispense 99 μl of membrane stocks into the plate. 3) Add 100 μl of radio ligand. 4) Seal the plates. Incubate at RT for 1 hour. 5) Soak the Unifilter-96 GF/C filter plates with 50 μl of 0.3% PEI per well for at least 0.5 hour at room temperature. 6) When binding assays are completed, filter the reaction mixture through GF/C plates using Perkin Elmer Filtermate Harvester, and then wash each plate for 4 times with cold wash buffer. 7) Dry the filter plates for 1 hour at 50 degrees. 8) After drying, seal the bottom of the filter plate wells using Perkin Elmer Unifilter-96 backing seal tape. Add 50 μl of Perkin Elmer Microscint 20 cocktail. Seal top of filter plates with Perkin Elmer TopSeal-A sealing film. 9) Count ^3H trapped on filter using Perkin Elmer MicroBeta2 Reader second day. 10) Analyze the data with GraphPad Prism 5. […]
# [2] = Water; heating temp. 40 °C, obs. temp. 40 °C
# [3] = target: T2, MOR (Homo sapiens, UniProt P35372); assay: Opioid receptor binding assay, MOR ([3H]DAMGO); conditions: MaxDose 10000 nM
# T2 construct: expressed in transfected cells
# Experimental: as §1, §2, §3
# [4] = Rat pharmacokinetic studies, intramuscular; assay type: in vivo, male Sprague Dawley Rats; conditions: 0.80 mg/kg, saline
# Experimental: The purpose of this study is to determine the pharmacokinetics of test compounds in plasma, following intramuscular administration to male Sprague Dawley Rats (n=3, unless otherwise specified).
# The dose formulation of 400 mg base equivalents/ml in sesame oil+1% benzyl alcohol (unless otherwise specified) was administered by intramuscular injection. The dose volume was determined by the animals' body weight determined on the morning of dosing day.
# Each collected blood sample was centrifuged for 4 minutes at 4° C. and 10000 rpm for plasma collection. Plasma was collected and transferred into a pre-labeled PP tube in dry ice at each time point and precipitated immediately using ACN at a ratio of 1:4 (plasma:ACN). Centrifuged again (10 minutes, 12000 rpm) and obtain the supernatant. After terminal collection, all supernatant was stored at approximately −80° C. until bioanalysis.
# LC-MS/MS methods for the quantitative determination of test compound in biological matrix were developed. […] The sample analysis was performed concurrently with a set of calibration standards and two sets of QC samples using the LC-MS/MS method.
# Plasma concentration versus time data was analyzed by non-compartmental approaches using the Phoenix WinNonlin 6.3 software program. Cmax, Tmax, T1/2, AUC(0-t), AUC(0-inf), MRT(0-t), MRT(0-inf) and graphs of plasma concentration versus time profile were prepared.
# T2 sequence (P35372 whole entry): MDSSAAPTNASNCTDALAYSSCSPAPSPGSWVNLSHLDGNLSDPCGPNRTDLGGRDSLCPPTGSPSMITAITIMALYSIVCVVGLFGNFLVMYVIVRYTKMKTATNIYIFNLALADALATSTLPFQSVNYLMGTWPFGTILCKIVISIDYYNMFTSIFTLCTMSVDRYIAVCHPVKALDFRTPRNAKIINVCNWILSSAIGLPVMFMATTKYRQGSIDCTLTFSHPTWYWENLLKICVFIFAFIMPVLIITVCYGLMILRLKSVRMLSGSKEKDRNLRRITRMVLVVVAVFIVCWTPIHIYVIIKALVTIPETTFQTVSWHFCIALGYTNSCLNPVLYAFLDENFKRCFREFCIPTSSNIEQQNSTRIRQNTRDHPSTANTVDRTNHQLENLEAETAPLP
# T1 sequence (P41145 whole entry): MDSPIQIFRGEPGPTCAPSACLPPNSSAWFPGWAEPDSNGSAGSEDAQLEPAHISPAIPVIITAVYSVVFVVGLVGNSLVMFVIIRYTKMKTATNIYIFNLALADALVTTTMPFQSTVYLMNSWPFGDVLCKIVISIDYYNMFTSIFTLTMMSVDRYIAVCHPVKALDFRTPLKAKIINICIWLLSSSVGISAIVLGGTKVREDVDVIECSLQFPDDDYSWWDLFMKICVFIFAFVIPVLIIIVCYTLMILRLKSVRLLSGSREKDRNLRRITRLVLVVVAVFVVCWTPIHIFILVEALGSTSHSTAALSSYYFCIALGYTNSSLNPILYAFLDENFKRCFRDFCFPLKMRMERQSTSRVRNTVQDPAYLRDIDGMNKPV
SMILES,% Inh@MaxDose [1] [%],Equilibrium solubility (mg/mL) Water [2] [mg/mL],% Inh@MaxDose [3] [%],AUC0-inf (ng · h/mL) nalmefene [4] [ng·h/mL],Terminal Half-life t1/2 (hour) nalmefene [4] [h]
"C=C1CC[C@@]2(O)C3Cc4ccc(OCOC(=O)OCCCCCCCCCCCCCCCC)c5c4[C@@]2(CCN3CC2CC2)[C@H]1O5 [Compound 34, (((4aS,7aS,12bS)-3-(cyclopropylmethyl)-4a-hydroxy-7-methylene-2,3,4,4a,5,6,7,7a-octahydro-1H-4,12-methanobenzofuro[3,2-e]isoquinolin-9-yl)oxy)methyl hexadecyl carbonate]",68.1,<0.001,92.7,–,–
C=C1CC[C@@]2(O)C3Cc4ccc(O)c5c4[C@@]2(CCN3CC2CC2)[C@H]1O5.Cl [Nalmefene HCl-IR],–,–,–,66.0,0.87

# From patent US10533015B1, “Opioid receptor antagonist prodrugs” (Nirsum Laboratories, Inc., priority 2019, dated 2020)
